Where a name gives a salt, the structure may show the parent alone. Read-outs that look alike come from different tables or passages of the source.
Legend:
[1] = target: T1, glycine transporter-1 (GlyT-1) (Homo sapiens, UniProt P48067); experiment: [14C]glycine uptake assay in JAR cells endogenously expressing GlyT-1 (scintillation proximity); type: cell-based; conditions: JAR cells, [14C]glycine 5 μM, 3 hour incubation; read-out: GlyT-1 IC50
T1 construct: JAR cells (ATCC#HTB-144), which endogenously express GlyT-1; host or cells: JAR human choriocarcinoma cells
T1 sequence (P48067 1-706): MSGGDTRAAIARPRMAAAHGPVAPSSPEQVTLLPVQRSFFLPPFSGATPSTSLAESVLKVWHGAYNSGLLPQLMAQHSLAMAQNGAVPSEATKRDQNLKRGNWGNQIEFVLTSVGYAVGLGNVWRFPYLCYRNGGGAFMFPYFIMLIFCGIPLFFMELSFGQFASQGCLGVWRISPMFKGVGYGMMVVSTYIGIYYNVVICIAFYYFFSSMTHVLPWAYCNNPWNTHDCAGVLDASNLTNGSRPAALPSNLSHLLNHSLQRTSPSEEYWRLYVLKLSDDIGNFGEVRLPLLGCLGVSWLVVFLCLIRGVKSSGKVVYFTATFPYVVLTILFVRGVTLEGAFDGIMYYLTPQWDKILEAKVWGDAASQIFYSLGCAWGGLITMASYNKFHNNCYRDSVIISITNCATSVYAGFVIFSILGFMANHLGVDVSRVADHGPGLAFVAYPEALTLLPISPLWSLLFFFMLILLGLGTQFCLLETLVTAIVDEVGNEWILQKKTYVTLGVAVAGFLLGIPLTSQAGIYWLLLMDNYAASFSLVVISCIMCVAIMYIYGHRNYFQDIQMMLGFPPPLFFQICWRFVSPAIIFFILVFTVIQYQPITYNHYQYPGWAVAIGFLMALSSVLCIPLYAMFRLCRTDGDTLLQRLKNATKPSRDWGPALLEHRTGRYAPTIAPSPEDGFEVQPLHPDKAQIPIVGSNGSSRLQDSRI
In short: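 Human choriocarcinoma JAR cells (endogenous GlyT-1) attached overnight, then pre-incubated 10 min at room temperature with compound in pH 7.4 Hepes uptake buffer containing 5 mM alanine and 0.75% DMSO. Uptake of 5 μM [14C]glycine over 3 h at 37 °C read by scintillation proximity; IC50 from four-parameter fit of nine-point curves.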

[2] = target: T2, glycine transporter-2 (GlyT-2) (Homo sapiens, UniProt Q9Y345); experiment: [14C]glycine uptake assay in HEK-GlyT-2 transfected cells; type: cell-based; conditions: HEK-GlyT-2 cells
T2 construct: expressed in transfected cells
T2 sequence (Q9Y345 1-797): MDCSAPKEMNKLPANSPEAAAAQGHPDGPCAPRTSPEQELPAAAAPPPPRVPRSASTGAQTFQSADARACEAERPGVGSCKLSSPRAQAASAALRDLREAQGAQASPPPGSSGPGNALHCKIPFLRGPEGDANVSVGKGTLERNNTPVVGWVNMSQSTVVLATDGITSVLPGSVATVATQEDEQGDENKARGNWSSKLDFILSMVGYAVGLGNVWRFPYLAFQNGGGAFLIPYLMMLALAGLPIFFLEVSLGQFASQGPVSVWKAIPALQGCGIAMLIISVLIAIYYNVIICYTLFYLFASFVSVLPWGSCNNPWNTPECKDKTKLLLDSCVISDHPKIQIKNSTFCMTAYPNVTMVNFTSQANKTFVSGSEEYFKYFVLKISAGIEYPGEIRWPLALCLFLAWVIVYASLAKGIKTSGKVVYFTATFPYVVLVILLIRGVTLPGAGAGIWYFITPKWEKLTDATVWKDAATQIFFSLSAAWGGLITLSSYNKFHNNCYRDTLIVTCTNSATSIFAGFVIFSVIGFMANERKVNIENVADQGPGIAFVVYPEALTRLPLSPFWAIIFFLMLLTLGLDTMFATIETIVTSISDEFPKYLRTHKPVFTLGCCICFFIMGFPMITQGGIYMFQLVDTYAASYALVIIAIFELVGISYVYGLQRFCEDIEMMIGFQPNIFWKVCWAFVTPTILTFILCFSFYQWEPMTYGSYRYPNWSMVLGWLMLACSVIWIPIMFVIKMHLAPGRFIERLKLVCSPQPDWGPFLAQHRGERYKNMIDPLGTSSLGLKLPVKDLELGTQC

[3] = test system: cerebrospinal fluid (CSF) glycine levels; experiment: CSF-glycine assay after oral administration; type: in vivo; conditions: rats; for change in vivo at 10 mg/kg / change in vivo at 30 mg/kg / change in vivo at 100 mg/kg / change in vivo at 75 mg/kg / change in vivo at 3 mg/kg: Rattus norvegicus, po, read-out: % CSF Glycine Increase versus Vehicle Control
Description: This study measured cerebrospinal fluid (CSF) glycine levels after oral administration of test compound. […] After the specified pretreatment time, the rats were euthanized by CO2 asphyxiation and a hypodermic needle was inserted into the cisterna magna to withdraw 50-100 μl of CSF. The CSF was diluted with deuterated-glycine as an internal standard glycine was quantified by LC/MS/MS.

[4] = 2 h, dose 10 mg/kg, pretreatment 120 mins
[5] = 6 h, dose 10 mg/kg, pretreatment 360 mins
[6] = 0.5 h, dose 10 mg/kg, pretreatment 30 mins
[7] = 0.5 h, dose 30 mg/kg, pretreatment 30 mins
[8] = 2 h, dose 30 mg/kg, pretreatment 120 mins

| Compound | IC50 [1] [nM] | IC50 [2] [nM] | change in vivo at 10 mg/kg [3, 4] [%] | change in vivo at 10 mg/kg [3, 6] [%] | change in vivo at 30 mg/kg [3, 7] [%] | change in vivo at 100 mg/kg ([3]; 0.5 h, pretreatment 30 mins) [%] | change in vivo at 30 mg/kg [3, 8] [%] | change in vivo at 100 mg/kg ([3]; 2 h, pretreatment 120 mins) [%] | other results |
| --- | --- | --- | --- | --- | --- | --- | --- | --- | --- |
| Cn1cc(S(=O)(=O)N2CCN(C3(CNC(=O)c4ccc(C(F)(F)F)cc4C(F)(F)F)CCC(F)(F)CC3)CC2)nn1 [compound 221, N-((4,4-Difluoro-1-(4-(1-methyl-1H-1,2,3-triazol-4-ylsulfonyl)piperazin-1-yl)cyclohexyl)methyl)-2,4-bis(trifluoromethyl) benzamide Hydrochloride] | 1 | > 75000 | 226 | – | – | – | – | – | change in vivo at 10 mg/kg [3, 5]: 241% |
| Cn1cc(S(=O)(=O)N2CCN(C3(CNC(=O)c4c(F)cccc4F)CCC(F)(F)CC3)CC2)nn1 [compound 189, N-((4,4-Difluoro-1-(4-(1-melhyl-1H-1,2,3-triazol-4-ylsulfonyl)piperazin-1-yl)cyclohexyl)methyl)-2,6-difluorobenzamide Hydrochloride] | 5 | > 75000 | 203 | 158 | 219 | 281 | 270 | 288 | – |
| CC(O)CS(=O)(=O)N1CCN(C2(CNC(=O)c3ccc(C(F)(F)F)cc3Cl)CCC(F)(F)CC2)CC1 (stereo not drawn) [compound 252, 2-Chloro-N-((4,4-difluoro-1-(4-(2-hydroxypropylsulfonyl)piperazin-1-yl)cyclohexyl)methyl)-4-(trifluoromethyl)benzamide Hydrochloride] | 33 | > 75000 | – | – | – | – | 207 | – | – |
| CCCS(=O)(=O)N1CCN(C2(CNC(=O)c3c(F)cccc3F)CCC(F)(F)CC2)CC1 [compound 130, N-((4,4-Difluoro-1-(4-(propylsulfonyl)piperazin-1-yl)cyclohexyl)methyl)-2,6-difluorobenzamide Hydrochloride] | 67 | > 75000 | 123 | 148 | 185 | – | 125 | – | change in vivo at 75 mg/kg ([3]; 0.5 h, pretreatment 30 mins): 201%; change in vivo at 75 mg/kg ([3]; 2 h, pretreatment 120 mins): 201% |
| Cn1cnc(S(=O)(=O)N2CCN(C3(CNC(=O)c4c(F)cccc4F)CCC(F)(F)CC3)CC2)c1 [compound 163, N-((4,4-Difluoro-1-(4-(1-methyl-1H-imidazol-4-ylsulfonyl)piperazin-1-yl)cyclohexyl)methyl)-2,6-difluorobenzamide Hydrochloride] | 18 | 74900 | 132 | 123 | 202 | 280 | 215 | 221 | – |
| CC(NC(=O)c1ccc(F)cc1Cl)C1(N2CCN(S(=O)(=O)c3cn(C)nn3)CC2)CCC(F)(F)CC1 (stereo not drawn) [compound 219, 2-Chloro-N-(1-(4,4-difluoro-1-(4-(1-methyl-1H-1,2,3-triazol-4-ylsulfonyl)piperazin-1-yl)cyclohexyl)ethyl)-4-fluorobenzamide Hydrochloride] | 3 | > 75000 | 310 | – | – | – | – | – | change in vivo at 3 mg/kg ([3]; 2 h, pretreatment 120 mins): 181% |
| CC(NC(=O)c1ccc(C(F)(F)F)cc1C(F)(F)F)C1(N2CCN(S(=O)(=O)c3cn(C)nn3)CC2)CCC(F)(F)CC1 (stereo not drawn) [compound 226, N-(1-(4,4-Difluoro-1-(4-(1-methyl-1H-1,2,3-triazol-4-ylsulfonyl)piperazin-1-yl)cyclohexyl)ethyl)-2,4-bis(trifluoromethyl) benzamide Hydrochloride] | 1 | > 75000 | 344 | – | – | – | – | – | change in vivo at 3 mg/kg ([3]; 2 h, pretreatment 120 mins): 243%; change in vivo at 3 mg/kg ([3]; 6 h, pretreatment 360 mins): 227%; change in vivo at 10 mg/kg [3, 5]: 339% |
| CCCS(=O)(=O)N1CCN(C2(CNC(=O)c3ccc(C(F)(F)F)cc3Cl)CCC(F)(F)CC2)CC1 [compound 151, N-((4,4-Difluoro-1-(4-(propylsulfonyl)piperazin-1-yl)cyclohexyl)methyl)-2-chloro-4-(trifluoromethyl)benzamide Hydrochloride] | 17 | > 75000 | 169 | 209 | 221 | 204 | 249 | 238 | – |
| Cn1cnc(S(=O)(=O)N2CCN(C3(CNC(=O)c4ccc(F)cc4F)CCC(F)(F)CC3)CC2)c1 [compound 162, N-((4,4-difluoro-1-(4-(1-methyl-1H-imidazol-4-ylsulfonyl)piperazin-1-yl)cyclohexyl)methyl)-2,4-difluorobenzamide Hydrochloride] | 46 | > 135000 | 130 | 154 | 178 | 207 | 156 | 156 | – |
| N-((4,4-Difluoro-1-(4- (propylsulfonyl)piperazin- 1-yl)cyclohexyl)methyl)- 2,4-bis(trifluoromethyl) benzamide Hydrochloride [compound 246] | 7 | > 75000 | – | – | – | – | – | – | % CSF Glycine Increase versus Vehicle Control ([3]; dose 10 mg/kg, pretreatment 120 mins): 191%; % CSF Glycine Increase versus Vehicle Control ([3]; dose 10 mg/kg, pretreatment 360 mins): 166%; % CSF Glycine Increase versus Vehicle Control ([3]; dose 30 mg/kg, pretreatment 120 mins): 205%; % CSF Glycine Increase versus Vehicle Control ([3]; dose 30 mg/kg, pretreatment 360 mins): 244% |
| Cn1cc(S(=O)(=O)N2CCN(C3(CNC(=O)c4ccc(F)cc4Cl)CCC(F)(F)CC3)CC2)nn1 [compound 192, 2-Chloro-N-((4,4-difluoro-1-(4-(1-methyl-1H-1,2,3-triazol-4-ylsulfonyl)piperazin-1-yl)cyclohexyl)methyl)-4-fluorobenzamide Hydrochloride] | 1 | > 75000 | 311 | 195 | – | – | – | – | change in vivo at 3 mg/kg ([3]; 0.5 h, pretreatment 30 mins): 173%; change in vivo at 3 mg/kg ([3]; 2 h, pretreatment 120 mins): 199% |

Reference: patent publication US9045445B2, “Glycine transporter-1 inhibitors, methods of making them, and uses thereof” (Albany Molecular Research, Inc., priority 2010, dated 2015)
